Measured values as given in US20210380929A1, “METHODS, APPARATUS AND KITS FOR BACTERIAL CELL LYSIS” (TECHNISCHE UNIVERSITÄT WIEN, priority 2018, published 2021).

System: Enterococcus faecalis type strain NCTC 775
Type: cell-based

| SMILES | 23S rRNA gene copies in 2.5 μl of the DNA extracts | cell lysis efficiency with varying IL concentration |
| --- | --- | --- |
| CC(=O)O.CCn1cc[n+](C)c1 [[C2mim]OAc, 1-Ethyl-3-methylimidazolium acetate] | ~6.48±0.02 | almost steadily decreased with its respective concentration |
| CCCCCC(=O)[O-].C[N+](C)(C)CCO [[Cho]Hex, Choline hexanoate] | ~6.49±0.11 | slightly improved towards a concentration of 50% (w/v), only decreasing with lower concentrations of 30% (w/v) and 10% (w/v) |
